One assay relates to NDF Cells. Nature of the assay: NAD Elevation Assay (NAD Cellular Assay), NDF cells. In kind it is cell-based. Particulars: @ 0.25 mM, multiple of NAD level in untreated cells. On the procedure:
(§1) Compounds were tested in an NAD Cellular Assay according to the following protocol. Jurkat cells (50,000 per in 100 microliters of RPMI media) were added to wells of a 96 well, conical bottomed plate. The cells were allowed to recover for 3 h in culture. A 16 microliter aliquot of a 100 mM compound stock solution was diluted with 784 microliters of medium and 10% FBS to give 800 microliters of a 2 mM compound treatment solution. The compound treatment solution was added to the cells for a final concentration of 1 mM compound (n=6 wells for each compound.) As a parallel control, nicotinamide mononucleotide (NMN) was added to cells at a final concentration of 2 mM (n=6). The plates were incubated for 24 hours, then spun at 1000 rpm for 10 min. The medium was removed, then the cells were washed with fresh PBS and spun again. The PBS medium was removed, then the cells were washed one more time with PBS and spun. The liquid was removed from each well via pipette, avoiding touching the cell pellet. The cells were lysed with 75 microliters of 0.5% DTAB. 25 microliters of the lysate was added to each of two flat bottomed plates. One plate was used for a BCA protein assay (clear), and the other plate was used for the NAD assay (clear bottom, white walled). The NAD concentration in each well was determined using a commercially available assay according to the kit instructions (e.g. Promega NAD/NADH-Glo™ Assay.) The Pierce BCA protein assay was run according to the kit instructions (e.g. ThermoScientific Catalog number 23225). NAD levels were normalized to total protein and reported as a multiple of the NAD level in untreated cells.
Assays with other cell types were run similarly, using the appropriate compound and NMN dilutions. Cell counts were adjusted as necessary to provide a signal within the reading range of the protein and NAD assay kits.

In the next assay the test system is Jurkat cells. Nature of the assay: NAD Elevation Assay (NAD Cellular Assay), Jurkat cells. Particulars: @ 1 mM, NAD normalized to total protein, multiple of NAD level in untreated cells. In kind it is cell-based. On the procedure:
as §1, with “25 microliters of the lysate was added to each of two flat bottomed plates. One plate was used for a BCA protein assay (clear), and the other plate was used for the NAD assay (clear bottom, white walled).” left out, “NAD levels were normalized to total protein and reported as a multiple of the NAD level in untreated cells.” left out

As to `Cn1c(=O)c2c(ncn2CC(=O)OCCCOC(=O)c2ccc[n+]([C@@H]3O[C@H](COP(=O)([O-])O)[C@@H](O)[C@H]3O)c2)n(C)c1=O` [Compound 6P, ((2R,3S,4R,5R)-5-(3-((3-(2-(1,3-dimethyl-2,6-dioxo-1,2,3,6-tetrahydro-7H-purin-7-yl)acetoxy)propoxy)carbonyl)pyridin-1-ium-1-yl)-3,4-dihydroxytetrahydrofuran-2-yl)methyl hydrogen phosphate], the “NAD Elevation Assay” value in the assay on NDF Cells worked out at 2.0× @ 0.25.

As to `Cn1c(=O)c2c(ncn2CCOC(=O)c2ccc[n+]([C@@H]3O[C@H](CO)[C@@H](O)[C@H]3O)c2)n(C)c1=O.O=S(=O)([O-])C(F)(F)F` [Compound 2, 1-((2R,3R,4S,5R)-3,4-dihydroxy-5-(hydroxymethyl)tetrahydrofuran-2-yl)-3-((2-(1,3-dimethyl-2,6-dioxo-1,2,3,6-tetrahydro-7H-purin-7-yl)ethoxy)carbonyl)pyridin-1-ium trifluoromethanesulfonate], the “NAD Elevation Assay” value in the assay on Jurkat cells was 2.9× @ 1.

Regarding `CCCn1cnc2c1c(=O)n(CCOC(=O)c1ccc[n+]([C@@H]3O[C@H](COP(=O)([O-])O)[C@@H](O)[C@H]3O)c1)c(=O)n2C` [Compound 7P, ((2R,3 S,4R,5R)-3,4-dihydroxy-5-(3-((2-(3-methyl-2,6-dioxo-7-propyl-2,3,6,7-tetrahydro-1H-purin-1-yl)ethoxy)carbonyl)pyridin-1-ium-1-yl)tetrahydrofuran-2-yl)methyl hydrogen phosphate], the “NAD Elevation Assay” value with NDF Cells is 1.9× @ 0.25.

With `Cn1cnc2c1c(=O)n(CCCOC(=O)c1ccc[n+]([C@@H]3O[C@H](COP(=O)([O-])O)[C@@H](O)[C@H]3O)c1)c(=O)n2C` [Compound 5P, ((2R,3S,4R,5R)-5-(3-((3-(3,7-dimethyl-2,6-dioxo-2,3,6,7-tetrahydro-1H-purin-1-yl)propoxy)carbonyl)pyridin-1-ium-1-yl)-3,4-dihydroxytetrahydrofuran-2-yl)methyl hydrogen phosphate], the “NAD Elevation Assay” value in the assay with NDF Cells is 2.2× @ 0.25.

Values taken from US11878994B1, “Compositions for treatment of inflammation” (Metro International Biotech, LLC, priority 2021, dated 2024).
